The values below come from the supplement of paper PMC11281043.

Assay [1] relates to Danio rerio embryo/larva. Nature of the assay: max % larvae generally abnormal across tested concentrations; higher = more toxic; extreme values may be limits of the assay. As to conditions: exposure: 6-8 hpf to 5 dpf, scored at 6 dpf.
In assay [2] the test system is Danio rerio embryo/larva. Nature of the assay: max % larvae with uninflated swim bladder across tested concentrations; higher = more toxic; extreme values may be limits of the assay. As to conditions: exposure: 6-8 hpf to 5 dpf, scored at 6 dpf.
Assay [3] concerns Danio rerio embryo/larva. Nature of the assay: max % larvae with blood pooling across tested concentrations; higher = more toxic; extreme values may be limits of the assay. As to conditions: exposure: 6-8 hpf to 5 dpf, scored at 6 dpf.
Assay [4] has as its system Danio rerio embryo/larva. Nature of the assay: max % larvae with craniofacial defects across tested concentrations; higher = more toxic; extreme values may be limits of the assay. As to conditions: exposure: 6-8 hpf to 5 dpf, scored at 6 dpf.
Assay [5] relates to Danio rerio embryo/larva. Nature of the assay: BMC general abnormality; higher = less potent. Particulars: exposure: 6-8 hpf to 5 dpf, scored at 6 dpf. The protocol:
(§1)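 Zebrafish embryos (with chorion) were exposed from 6-8 hpf to each PFAS (8-point half-log series, top concentration up to 100 uM, 0.4% DMSO, sealed plates, 26 C; n = 6 embryos per concentration), rinsed at 5 dpf and scored at 6 dpf by two blinded observers for mortality, hatching and malformations. Endpoint scores are the % of living larvae affected (dead larvae excluded; […]). Curves were fitted with tcpl (cutoff 16%), and the BMC is the concentration at a benchmark response of 21.6%.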

Assay [6] concerns Danio rerio embryo/larva. Nature of the assay: max % larvae with abnormal position across tested concentrations; higher = more toxic; extreme values may be limits of the assay. As to conditions: exposure: 6-8 hpf to 5 dpf, scored at 6 dpf.
The test system of assay [7] is Danio rerio embryo/larva. The experiment in a line: max % larvae with pigmentation defects across tested concentrations; higher = more toxic. Particulars: exposure: 6-8 hpf to 5 dpf, scored at 6 dpf.
The test system of assay [8] is Danio rerio embryo/larva. Nature of the assay: max % larvae with spinal defects across tested concentrations; higher = more toxic; extreme values may be limits of the assay. Particulars: exposure: 6-8 hpf to 5 dpf, scored at 6 dpf.
Assay [9] deals with Danio rerio embryo/larva. The experiment in a line: max % larvae with edema across tested concentrations; higher = more toxic; extreme values may be limits of the assay. As to conditions: exposure: 6-8 hpf to 5 dpf, scored at 6 dpf.
Assay [10] relates to Danio rerio embryo/larva. Nature of the assay: max % larvae with tail defects across tested concentrations; higher = more toxic; extreme values may be limits of the assay. Particulars: exposure: 6-8 hpf to 5 dpf, scored at 6 dpf.
Assay [11] has as its system Danio rerio embryo/larva. Nature of the assay: max % larvae unhatched across tested concentrations; max tested concentration (log10 uM): 2; higher = more toxic. Particulars: exposure: 6-8 hpf to 5 dpf, scored at 6 dpf.
In assay [12] the test system is Danio rerio embryo/larva. The experiment in a line: BMC mortality; max tested concentration (log10 uM): 2; higher = less potent. Particulars: exposure: 6-8 hpf to 5 dpf, scored at 6 dpf. Here is the method:
as §1

Assay [13] concerns Danio rerio embryo/larva. The experiment in a line: max % larvae with any abnormality across tested concentrations; max tested concentration (log10 uM): 2; higher = more toxic; extreme values may be limits of the assay. Particulars: exposure: 6-8 hpf to 5 dpf, scored at 6 dpf.
The test system of assay [14] is Danio rerio embryo/larva. The experiment in a line: max % larvae dead across tested concentrations; max tested concentration (log10 uM): 2; higher = more toxic; extreme values may be limits of the assay. Particulars: exposure: 6-8 hpf to 5 dpf, scored at 6 dpf.
In assay [15] the test system is Danio rerio embryo/larva. Nature of the assay: BMC swim bladder non-inflation; higher = less potent. Particulars: max tested concentration (log10 uM): 1.47712; exposure: 6-8 hpf to 5 dpf, scored at 6 dpf. The protocol: as §1
The test system of assay [16] is Danio rerio embryo/larva. Nature of the assay: BMC any abnormality; max tested concentration (log10 uM): 2; higher = less potent. As to conditions: exposure: 6-8 hpf to 5 dpf, scored at 6 dpf. Here is the method: as §1

Each structure is given as a SMILES string.

Take `O=C(O)C(F)(F)OC(F)(F)C(F)(F)OC(F)(F)C(F)(F)OC(F)(F)C(F)(F)C(F)(F)C(F)(F)F` [Perfluoro-3,6,9-trioxatridecanoic acid] (max tested concentration (log10 uM): 1): the “max % larvae generally abnormal across tested concentrations” value with Danio rerio embryo/larva [1] was found to be 50%. In addition, the max % larvae in the assay with Danio rerio embryo/larva [2] is 100%; in the assay on Danio rerio embryo/larva [3], 16.7%; in the assay with Danio rerio embryo/larva [4], 0%; with Danio rerio embryo/larva [6], 50%; with Danio rerio embryo/larva [7] it was 0%; in the assay on Danio rerio embryo/larva [8], 0%. The max % larvae was determined as 50% in the assay with Danio rerio embryo/larva [9] and 0% in the assay on Danio rerio embryo/larva [10]. In the assay on Danio rerio embryo/larva [5], the BMC general abnormality was 1.51 µM.
As to `O=C(O)C(F)(F)OC(F)(F)C(F)(F)OC(F)(F)C(F)(F)C(F)(F)C(F)(F)F` [Perfluoro-3,6-dioxadecanoic acid], the “max % larvae unhatched across tested concentrations” value in the assay with Danio rerio embryo/larva [11] is 0%. Also, the BMC mortality with Danio rerio embryo/larva [12] is 75.3 µM. In addition, in the assay on Danio rerio embryo/larva [13], the max % larvae is 91.7%. Besides, in the assay with Danio rerio embryo/larva [14], the “max % larvae dead across tested concentrations” value was 66.7%.
`O=C(O)C(F)(F)C(F)(F)C(F)(F)C(F)(F)C(F)(F)C(F)(F)C(F)(F)C(F)(F)C(F)(F)F` [Perfluorodecanoic acid]: the “max % larvae unhatched across tested concentrations” value with Danio rerio embryo/larva [11] was found to be 0%. In the assay with Danio rerio embryo/larva [12], this compound yielded a BMC mortality of 11.2 µM. This compound also registered a max % larvae in the assay on Danio rerio embryo/larva [13] of 100%. Also, the “BMC swim bladder non-inflation” value in the assay with Danio rerio embryo/larva [15] came out at 10.1 µM. For the same compound, in the assay with Danio rerio embryo/larva [14], the “max % larvae dead across tested concentrations” value worked out at 100%. Moreover, the BMC any abnormality with Danio rerio embryo/larva [16] is 9.34 µM.
As for `O=C(O)C(F)(F)C(F)(F)C(F)(F)C(F)(F)C(F)(F)C(F)(F)C(F)(F)C(F)(F)C(F)(F)F` [Perfluorodecanoic acid] (max tested concentration (log10 uM): 1.47712), in the assay on Danio rerio embryo/larva [1], the “max % larvae generally abnormal across tested concentrations” value worked out at 50%. Further, the max % larvae in the assay on Danio rerio embryo/larva [2] came to 100%; in the assay with Danio rerio embryo/larva [3], 0%; in the assay on Danio rerio embryo/larva [4] it was 0%; in the assay with Danio rerio embryo/larva [6] it was 0%; in the assay on Danio rerio embryo/larva [7] it was 0%; with Danio rerio embryo/larva [8], 0%. Further, the values for the max % larvae in the assay with Danio rerio embryo/larva [9] and in the assay on Danio rerio embryo/larva [10] were 50% and 0%, respectively. The compound also gave a BMC general abnormality in the assay on Danio rerio embryo/larva [5] of 11.2 µM.
Turning to `NS(=O)(=O)C(F)(F)C(F)(F)C(F)(F)C(F)(F)C(F)(F)C(F)(F)F` [Perfluorohexanesulfonamide] (max tested concentration (log10 uM): 0.477121), the “max % larvae generally abnormal across tested concentrations” value with Danio rerio embryo/larva [1] stood at 85%. Further, the max % larvae with Danio rerio embryo/larva [2] was 100%; in the assay on Danio rerio embryo/larva [3], 0%; in the assay with Danio rerio embryo/larva [4], 70%; in the assay with Danio rerio embryo/larva [6], 30%; in the assay with Danio rerio embryo/larva [7], 0%; with Danio rerio embryo/larva [8] it was 5%. The figures for the max % larvae in the assay on Danio rerio embryo/larva [9] and in the assay on Danio rerio embryo/larva [10] were 85% and 10%, respectively. The BMC general abnormality with Danio rerio embryo/larva [5] worked out at 1.66 µM.
`O=C(O)C(F)(F)C(F)(F)C(F)(F)C(F)(F)C(F)(F)C(F)(F)C(F)(F)C(F)(F)F` [Perfluorononanoic acid] (max tested concentration (log10 uM): 2): the “max % larvae generally abnormal across tested concentrations” value in the assay with Danio rerio embryo/larva [1] is 75%. For the same compound, the max % larvae in the assay with Danio rerio embryo/larva [2] came to 100%; with Danio rerio embryo/larva [3] it was 16.7%; in the assay with Danio rerio embryo/larva [4] it was 100%; in the assay on Danio rerio embryo/larva [6], 37.5%; in the assay on Danio rerio embryo/larva [7], 0%; in the assay with Danio rerio embryo/larva [8], 25%. The max % larvae in the assay with Danio rerio embryo/larva [9] was 75%; in the assay with Danio rerio embryo/larva [10], 50%. This compound also came in with a BMC general abnormality in the assay on Danio rerio embryo/larva [5] of 28 µM.
`O=C(Cl)C(F)(F)C(F)(F)C(F)(F)C(F)(F)C(F)(F)C(F)(F)C(F)(F)C(F)(F)F` [Perfluorononanoyl chloride] (max tested concentration (log10 uM): 1.47712): the “max % larvae generally abnormal across tested concentrations” value in the assay on Danio rerio embryo/larva [1] was determined as 29.2%. Also, the max % larvae was 50% in the assay on Danio rerio embryo/larva [2]; 16.7% in the assay with Danio rerio embryo/larva [3]; 0% in the assay on Danio rerio embryo/larva [4]; 4.17% with Danio rerio embryo/larva [6]; 0% in the assay with Danio rerio embryo/larva [7]; 0% in the assay with Danio rerio embryo/larva [8]. The max % larvae in the assay on Danio rerio embryo/larva [9] turned out to be 16.7%; in the assay with Danio rerio embryo/larva [10], 0%. The same compound showed a BMC general abnormality in the assay with Danio rerio embryo/larva [5] of 13.1 µM.
